The record followed here is DBAASP.

Among the test systems are Bacillus subtilis; Enterococcus faecalis; Escherichia coli O111:B4; Enterococcus faecalis A4; Staphylococcus aureus MR.
Common to all, as to assay: ≥ marks a high value that may be exact or a test limit, other limits are often not marked, values filed in µg/mL are converted to µM
Test [1] relates to Pseudomonas aeruginosa H103.
For test [2], the system named is Salmonella typhimurium C610.
Test [3] concerns Staphylococcus aureus K147.
Test [4] deals with Staphylococcus aureus SAP 0017.
The test system of test [5] is Staphylococcus epidermidis.
The test system of test [6] is Bacillus subtilis KCTC 3068.
In test [7] the test system is Enterococcus faecium ATCC 51559.
Test [8] concerns Escherichia coli KCTC 1682.
Test [9] deals with Pseudomonas aeruginosa CCARM 2095.
Test [10] has as its system Pseudomonas aeruginosa KCTC 1637.
Test [11] concerns Salmonella typhimurium KCTC 1926.
In test [12] the test system is Staphylococcus aureus CCARM 3089.
The test system of test [13] is Staphylococcus aureus CCARM 3090.
The test system of test [14] is Staphylococcus aureus CCARM 3095.
Test [15] has as its system Staphylococcus aureus KCTC 1621.
Test [16] relates to Staphylococcus epidermidis KCTC 1917.
Test [17] concerns Bacillus subtilis ATCC 6633.
Test [18] has as its system Escherichia coli DH5alpha.
In test [19] the test system is Escherichia coli DSM 1103.
Test [20] deals with Kocuria rhizophila DSM 348.
The subject of test [21] is Micrococcus luteus DSM 1790.
In test [22] the test system is Staphylococcus aureus DSM 1104.
Test [23] deals with Bacillus amyloliquefaciens ATCC 23842.
Test [24] has as its system Bacillus cereus ATCC 14579.
Test [25] relates to Bacillus licheniformis ATCC 14580.
For test [26], the system named is Bacillus subtilis ATCC 6051.
In test [27] the test system is Enterococcus faecalis 1F-1.
For test [28], the system named is Enterococcus faecium 4W-9.
Test [29] concerns Enterococcus faecium 5F-10.
Test [30] relates to Escherichia coli ATCC 25922.
The test system of test [31] is Proteus mirabilis ATCC 35659.
For test [32], the system named is Pseudomonas aeruginosa PAO1.
In test [33] the test system is Salmonella enterica ATCC H9812.
Test [34] concerns Staphylococcus aureus 215.
Test [35] has as its system Staphylococcus aureus ATCC 29213.
The subject of test [36] is Aspergillus flavus ATCC 24109.
For test [37], the system named is Aspergillus fumigatus ATCC 1022.
The subject of test [38] is Aspergillus niger ATCC 9142.
For test [39], the system named is Candida albicans ATCC 10231.
For test [40], the system named is Candida glabrata ATCC 90030.
Test [41] relates to Candida krusei ATCC 28870.
For test [42], the system named is Cryptococcus neoformans ATCC 2517.
Test [43] relates to Enterococcus faecalis ATCC 29212.
The test system of test [44] is Microsporum canis PTCC 5069.
Test [45] has as its system Pseudomonas aeruginosa ATCC 27853.
Test [46] has as its system Saccharomyces cerevisiae PTCC 5052.
Test [47] has as its system Staphylococcus aureus ATCC 25923.
The test system of test [48] is Trichophyton mentagrophytes ATCC 32510.

In brackets after ≈: the same amount, converted by molar mass.

`CC[C@H](C)[C@H](NC(=O)[C@H](C)NC(=O)[C@@H]1CCCN1C(=O)CNC(=O)[C@H](C)NC(=O)[C@@H](NC(=O)[C@H](CCCCN)NC(=O)[C@H](CC(C)C)NC(=O)CNC(=O)[C@H](CO)NC(=O)[C@H](CC(C)C)NC(=O)[C@@H](NC(=O)[C@H](CCCN=C(N)N)NC(=O)[C@H](CCCN=C(N)N)NC(=O)[C@H](Cc1c[nH]c2ccccc12)NC(=O)[C@H](Cc1c[nH]c2ccccc12)NC(=O)[C@H](CCCCN)NC(=O)[C@@H](N)CCCCN)C(C)C)[C@@H](C)O)C(=O)N[C@@H](CCC(N)=O)C(=O)N[C@@H](CO)C(=O)N[C@H](C(=O)N[C@@H](CC(C)C)C(=O)N[C@@H](CC(N)=O)C(=O)N[C@@H](CCCCN)C(=O)O)C(C)C` [KKWWRRVLSGLKTAGPAIQSVLNK]: the MIC with Bacillus subtilis was no less than 46.8 µM; in the test with Enterococcus faecalis it was no less than 46.8 µM; with Escherichia coli O111:B4, 5.85 µM (≈ 16 µg/mL); in [1] it was 23.4 µM (≈ 64 µg/mL); in test [2], 5.85 µM (≈ 16 µg/mL); in test [3], no less than 46.8 µM. Moreover, the MIC in test [4] and in test [5] was no less than 46.8 µM each time.
As to `CC[C@H](C)[C@H](NC(=O)[C@@H](NC(=O)[C@H](Cc1cnc[nH]1)NC(=O)[C@H](CCCN=C(N)N)NC(=O)[C@H](C)NC(=O)[C@H](CCCN=C(N)N)NC(=O)[C@H](CC(C)C)NC(=O)[C@H](CO)NC(=O)[C@H](C)NC(=O)[C@H](CO)NC(=O)[C@H](CC(C)C)NC(=O)[C@@H](N)CC(N)=O)[C@@H](C)O)C(=O)N1CCC[C@H]1C(=O)N[C@@H](CCC(N)=O)C(=O)N[C@@H](CO)C(=O)N[C@@H](CCCN=C(N)N)C(=O)N[C@@H](CCCCN)C(=O)N[C@@H](Cc1ccccc1)C(=O)NCC(=O)N[C@@H](CCCN=C(N)N)C(=O)N[C@@H](CCCN=C(N)N)C(=O)O` [NLSASLRARHTIPQSRKFGRR], the MIC is 12.5 µM (≈ 30.6 µg/mL) in test [6]; no less than 50 µM in test [7]; 6.3 µM (≈ 15.4 µg/mL) in test [8]; 12.5 µM (≈ 30.6 µg/mL) in test [9]; 6.3 µM (≈ 15.4 µg/mL) in [10]; 6.3 µM (≈ 15.4 µg/mL) in test [11]. The minimum inhibitory concentration (MIC) in test [12] was 25 µM (≈ 61.3 µg/mL); in test [13], no less than 50 µM; in [14], 25 µM (≈ 61.3 µg/mL); in test [15] it was 12.5 µM (≈ 30.6 µg/mL); in test [16], 6.3 µM (≈ 15.4 µg/mL).
For the molecule `CC(C)C[C@H](NC(=O)[C@H](C)NC(=O)[C@H](CCCCN)NC(=O)[C@H](CC(C)C)NC(=O)[C@H](C)NC(=O)[C@H](CC(C)C)NC(=O)[C@H](CCCCN)NC(=O)[C@H](CC(C)C)NC(=O)[C@H](C)NC(=O)[C@H](CC(C)C)NC(=O)[C@@H](N)CCCCN)C(=O)N[C@@H](CCCCN)C(=O)N[C@@H](C)C(=O)N[C@@H](C)C(=O)N[C@@H](CC(C)C)C(=O)N[C@@H](CCCCN)C(=O)N[C@@H](CC(C)C)C(=O)N[C@@H](C)C(=O)O` [KLALKLALKALKAALKLA], the MIC in test [17], in [18], in test [19], in [20], in [21] and in test [22] was no less than 68.2 µM each time.
Take `CC(C)C[C@H](NC(=O)[C@H](CC(C)C)NC(=O)[C@@H](N)CCC(=O)O)C(=O)N[C@@H](CO)C(=O)N[C@@H](CCCN=C(N)N)C(=O)N[C@H](C(=O)N[C@@H](CC(=O)O)C(=O)O)C(C)C` [ELLSRVD]: the MIC in [23] was no less than 77 µM; in test [24] it was no less than 77 µM; in test [25], no less than 77 µM; in [26], no less than 77 µM; in [27], no less than 154 µM; in the test with Enterococcus faecalis A4, no less than 154 µM. Besides, the MIC in [28] was no less than 154 µM; in [29], no less than 154 µM; in [30], greater than 154 µM; in [31], no less than 154 µM; in [32] it was greater than 154 µM; in test [33], no less than 154 µM. Also, the MIC amounted to 4.81 µM (≈ 4 µg/mL) in [34], 4.81 µM (≈ 4 µg/mL) in test [35] and 3.4 µM (≈ 2.83 µg/mL) against Staphylococcus aureus MR.
Take `CC[C@H](C)[C@H](NC(=O)[C@H](CCCCN)NC(=O)[C@H](Cc1ccccc1)NC(=O)[C@@H](N)Cc1c[nH]c2ccccc12)C(=O)N[C@H](C(=O)N[C@@H](CCCCN)C(=O)N[C@@H](CCCCN)C(=O)O)[C@@H](C)CC` [WFKIIKK]: the MIC in test [36] was no less than 1040 µM; in test [37], 7.59 µM (≈ 7.3 µg/mL); in [38], no less than 130 µM; in test [26] it was no less than 1040 µM; in test [39] it was 16.6 µM (≈ 16 µg/mL); in test [40], no less than 130 µM. Further, the MIC in [41] is no less than 33.3 µM; in test [42] it was no less than 1040 µM; in [43] it was greater than 1040 µM; in test [30] it was greater than 1040 µM; in test [44], no less than 130 µM; in test [45], greater than 1040 µM. For the same molecule, the MIC was 16.6 µM (≈ 16 µg/mL) in [46], greater than 1040 µM in [47] and no less than 65 µM in [48].

The term MIC denotes the lowest concentration that inhibits growth of the organism. High values mean a need for much substance, low ones inhibition by little substance.
